Values joined by “and” are separate entries in the source; they are usually repeats but may differ in a detail not shown here. Identical values can stand only once. Bounds are passed on as bounds.

The term IC50 denotes the concentration needed to halve the response being measured.

Test [1] deals with T1, AHR (Homo sapiens, UniProt P35869).
T1 construct: U87 MG glioblastoma cells (ATCC #HTB-14) endogenously expressing AHR; endogenous in cells; host or cells: U87 MG glioblastoma cells (ATCC #HTB-14)
T1 sequence (P35869 11-848): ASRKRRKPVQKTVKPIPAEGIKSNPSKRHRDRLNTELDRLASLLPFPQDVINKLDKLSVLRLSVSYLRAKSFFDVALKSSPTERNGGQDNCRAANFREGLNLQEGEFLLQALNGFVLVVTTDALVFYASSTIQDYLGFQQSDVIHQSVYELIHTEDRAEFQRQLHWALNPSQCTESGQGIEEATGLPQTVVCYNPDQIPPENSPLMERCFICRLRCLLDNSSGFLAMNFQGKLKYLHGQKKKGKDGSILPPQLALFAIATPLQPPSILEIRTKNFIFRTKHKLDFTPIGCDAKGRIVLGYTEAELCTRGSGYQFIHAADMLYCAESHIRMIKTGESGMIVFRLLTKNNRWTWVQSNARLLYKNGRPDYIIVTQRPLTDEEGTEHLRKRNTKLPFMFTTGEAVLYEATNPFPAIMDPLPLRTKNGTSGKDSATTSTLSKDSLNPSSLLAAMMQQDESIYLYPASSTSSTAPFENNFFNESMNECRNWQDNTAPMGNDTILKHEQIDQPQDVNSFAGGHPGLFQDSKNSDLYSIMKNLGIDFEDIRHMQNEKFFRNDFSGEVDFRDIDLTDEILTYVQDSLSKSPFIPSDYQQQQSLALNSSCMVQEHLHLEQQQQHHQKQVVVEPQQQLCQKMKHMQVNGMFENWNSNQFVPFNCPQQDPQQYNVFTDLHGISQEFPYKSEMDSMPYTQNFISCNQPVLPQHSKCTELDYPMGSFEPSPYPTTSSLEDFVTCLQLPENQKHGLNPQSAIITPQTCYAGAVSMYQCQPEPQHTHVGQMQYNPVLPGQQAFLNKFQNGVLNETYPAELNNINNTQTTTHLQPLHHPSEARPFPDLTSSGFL
Kind of test: In vitro assay 1: antagonism in human cell line (AHR transactivation, firefly luciferase reporter, kynurenic acid prestimulated). It counts as cell-based. Conditions: AHR Antagonism Human IC50 [M]. In a few lines: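 U87 MG + DRE-firefly/constitutive-Renilla stable reporters; kynurenic acid prestim; dual-luc read; Renilla = tox; normalized vs pos/neg controls (pos: 150 μM KYNA + 5 μM staurosporine).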
(Reporter assays use an easily measured gene product as a stand-in for the process of interest.)

The target in test [2] is T2, AHR (Mus musculus, UniProt P30561).
T2 sequence (P30561 1-848 P471L/N533S/M589L): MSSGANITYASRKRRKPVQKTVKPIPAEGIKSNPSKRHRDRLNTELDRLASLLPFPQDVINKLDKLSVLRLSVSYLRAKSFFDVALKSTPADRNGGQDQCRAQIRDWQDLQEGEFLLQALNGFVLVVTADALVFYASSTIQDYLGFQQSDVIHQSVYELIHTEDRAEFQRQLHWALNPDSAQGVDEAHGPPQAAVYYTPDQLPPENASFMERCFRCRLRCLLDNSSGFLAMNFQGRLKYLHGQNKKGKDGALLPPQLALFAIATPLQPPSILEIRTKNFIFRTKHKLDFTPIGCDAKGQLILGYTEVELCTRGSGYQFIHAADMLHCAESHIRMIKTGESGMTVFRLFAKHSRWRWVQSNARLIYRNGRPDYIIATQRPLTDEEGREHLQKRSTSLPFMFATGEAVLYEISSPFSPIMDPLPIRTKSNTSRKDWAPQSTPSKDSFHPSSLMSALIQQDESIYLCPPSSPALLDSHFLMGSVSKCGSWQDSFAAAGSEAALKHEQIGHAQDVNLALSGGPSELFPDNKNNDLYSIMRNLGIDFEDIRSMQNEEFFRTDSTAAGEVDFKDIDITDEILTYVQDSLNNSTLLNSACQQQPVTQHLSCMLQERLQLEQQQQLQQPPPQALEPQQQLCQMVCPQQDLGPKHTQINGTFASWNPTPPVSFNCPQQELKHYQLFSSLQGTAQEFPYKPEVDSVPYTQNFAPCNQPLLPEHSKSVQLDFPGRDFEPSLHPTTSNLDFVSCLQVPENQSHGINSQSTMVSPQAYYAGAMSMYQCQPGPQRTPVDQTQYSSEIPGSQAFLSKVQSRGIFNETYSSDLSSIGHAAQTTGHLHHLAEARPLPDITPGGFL
The experiment in a line: In vitro assay 3: antagonism in mouse cell line (AHR transactivation, firefly luciferase reporter, kynurenic acid prestimulated). The class given is cell-based. Conditions: mouse Hepa 1c1c7 cells, 200 μM kynurenic acid, 20 hours, read-out: AHR Antagonism Mouse IC50. The method in brief:
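Mouse cells stably carrying a DRE-driven AHR-inducible firefly luciferase reporter were prestimulated with the endogenous agonist kynurenic acid before compound addition. Luciferase read by SteadyGlo; cells without kynurenic acid served as full-inhibition control, with normalization to positive and negative controls. Repeat tests reported as mean or median.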

Turning to `COC(=O)[C@H](Nc1nc2ccccc2c2nc(-c3cccc(OC)c3)nn12)C(C)C` [Example 104, methyl N-[2-(3-methoxyphenyl)[1,2,4]triazolo[1,5-c]quinazolin-5-yl]-D-valinate], the figures for the IC50 against AHR [1] and on AHR [2] were 1.12e-08 M and 2.43 nM, respectively.

For `COc1cccc(-c2nc3c4ccccc4nc(N[C@H](C)C(=O)NC(C)C)n3n2)c1` [Example 105, N^2-[2-(3-methoxyphenyl)[1,2,4]triazolo[1,5-c]quinazolin-5-yl]-N-propan-2-yl-D-alaninamide], the half-inhibitory concentration (IC50) against AHR [1] worked out at 8.86e-09 M; on AHR [2], 7.35 nM.

As for `COc1cccc(-c2nc3c4ccccc4nc(N[C@H](C)C(=O)NC4CC4)n3n2)c1` [Example 106, N-cyclopropyl-N^2-[2-(3-methoxyphenyl)[1,2,4]triazolo[1,5-c]quinazolin-5-yl]-D-alaninamide], the IC50 against AHR [1] was found to be 7.97e-09 M; on AHR [2], 4.91 nM.

With `CCNC(=O)[C@@H](C)Nc1nc2ccccc2c2nc(-c3cccc(OC)c3)nn12` [Example 107, N-ethyl-N^2-[2-(3-methoxyphenyl)[1,2,4]triazolo[1,5-c]quinazolin-5-yl]-D-alaninamide], the half-inhibitory concentration (IC50) against AHR [1] is 1.06e-08 M; at AHR [2], 9.86 nM.

For `CNC(=O)[C@@H](C)Nc1nc2ccccc2c2nc(-c3cccc(OC)c3)nn12` [Example 108, N^2-[2-(3-methoxyphenyl)[1,2,4]triazolo[1,5-c]quinazolin-5-yl]-N-methyl-D-alaninamide], the half-maximal inhibitory concentration (IC50) against AHR [1] is 5.75e-09 M; on AHR [2], 3.58 nM.

`COc1cccc(-c2nc3c4ccccc4nc(N[C@H](C)C(=O)NC4CCC4)n3n2)c1` [Example 109, N-cyclobutyl-N^2-[2-(3-methoxyphenyl)[1,2,4]triazolo[1,5-c]quinazolin-5-yl]-D-alaninamide]: the values for the IC50 at AHR [1] and on AHR [2] were 6.94e-09 M and 4.15 nM, respectively.

Turning to `COc1cccc(-c2nc3c4ccccc4nc(N[C@H](C)C(=O)N(C)C)n3n2)c1` [Example 110, N^2-[2-(3-methoxyphenyl)[1,2,4]triazolo[1,5-c]quinazolin-5-yl]-N,N-dimethyl-D-alaninamide], the half-inhibitory concentration (IC50) against AHR [1] is 1.01e-08 M; on AHR [2], 4.9 nM.

Regarding `COc1cccc(-c2nc3c4ccccc4nc(N[C@H](C)C(=O)NCCO)n3n2)c1` [Example 111, N-(2-hydroxyethyl)-N^2-[2-(3-methoxyphenyl)[1,2,4]triazolo[1,5-c]quinazolin-5-yl]-D-alaninamide], the half-inhibitory concentration (IC50) at AHR [1] came to 1.42e-08 M; on AHR [2], 15.8 nM.

For the molecule `COc1cccc(-c2nc3c4ccccc4nc(N[C@H](C)C(=O)NCCCO)n3n2)c1` [Example 112, N-(3-hydroxypropyl)-N^2-[2-(3-methoxyphenyl)[1,2,4]triazolo[1,5-c]quinazolin-5-yl]-D-alaninamide], the values for the 50% inhibitory concentration (IC50) against AHR [1] and on AHR [2] were 3.79e-08 M and 6 nM, respectively.

`COc1cccc(-c2nc3c4ccccc4nc(N[C@H](CCS(C)(=O)=O)C(N)=O)n3n2)c1` [Example 113, (2R)-2-{[2-(3-methoxyphenyl)[1,2,4]triazolo[1,5-c]quinazolin-5-yl]amino}-4-(methylsulfonyl)butanamide]: the IC50 on AHR [1] was determined as 1.58e-05 M; at AHR [2], 719 nM.

On to `COc1cccc(-c2nc3c4ccccc4nc(N[C@@H](CCCCN)C(N)=O)n3n2)c1` [Example 114, N^2-[2-(3-methoxyphenyl)[1,2,4]triazolo[1,5-c]quinazolin-5-yl]-L-lysinamide], for which the half-inhibitory concentration (IC50) at AHR [1] was above 2e-05 M; at AHR [2] it was 5510 nM and > 5710 nM.

As to `COc1cccc(-c2nc3c4ccccc4nc(NC4CNCCNC4=O)n3n2)c1` (centres unmarked) [Example 115, 6-{[2-(3-methoxyphenyl)[1,2,4]triazolo[1,5-c]quinazolin-5-yl]amino}-1,4-diazepan-5-one], the IC50 is 1.11e-06 M against AHR [1] and 68 nM at AHR [2].

For the molecule `O=C1NCCCC[C@H]1Nc1nc2ccccc2c2nc(-c3ccccn3)nn12` [Example 124, (3R)-3-{[2-(pyridin-2-yl)[1,2,4]triazolo[1,5-c]quinazolin-5-yl]amino}azepan-2-one], the IC50 was determined as 2.83e-08 M against AHR [1] and 54.1 nM on AHR [2].

For the molecule `O=C1NCCCC[C@H]1Nc1nc2ccccc2c2nc(-c3cccnc3)nn12` [Example 125, (3R)-3-{[2-(pyridin-3-yl)[1,2,4]triazolo[1,5-c]quinazolin-5-yl]amino}azepan-2-one], the IC50 stood at 5.68e-10 M against AHR [1] and 4.64 nM on AHR [2].

As to `O=C1NCCCC[C@H]1Nc1nc2ccccc2c2nc(-c3ccncc3)nn12` [Example 126, (3R)-3-{[2-(pyridin-4-yl)[1,2,4]triazolo[1,5-c]quinazolin-5-yl]amino}azepan-2-one], the results for the IC50 on AHR [1] and on AHR [2] were 1.3e-08 M and 14.8 nM, respectively.

With `CN(C)c1ccc(-c2nc3c4ccccc4nc(N[C@@H]4CCCCNC4=O)n3n2)cc1` [Example 128, (3R)-3-({2-[4-(dimethylamino)phenyl][1,2,4]triazolo[1,5-c]quinazolin-5-yl}amino)azepan-2-one], the 50% inhibitory concentration (IC50) came to 1.5e-09 M against AHR [1] and 0.316 nM on AHR [2].

As for `O=C1NCCCC[C@H]1Nc1nc2ccccc2c2nc(-c3ccco3)nn12` [Example 130, (3R)-3-{[2-(furan-2-yl)[1,2,4]triazolo[1,5-c]quinazolin-5-yl]amino}azepan-2-one], the half-inhibitory concentration (IC50) was determined as 4.55e-09 M against AHR [1] and 5.82 nM at AHR [2].

With `Cc1noc(-c2nc3c4ccccc4nc(N[C@@H]4CCCCNC4=O)n3n2)n1` [Example 131, (3R)-3-{[2-(3-methyl-1,2,4-oxadiazol-5-yl)[1,2,4]triazolo[1,5-c]quinazolin-5-yl]amino}azepan-2-one], the IC50 was found to be 1.79e-07 M against AHR [1] and 93.8 nM at AHR [2].

In the case of `CCc1noc(-c2nc3c4ccccc4nc(N[C@@H]4CCCCNC4=O)n3n2)n1` [Example 132, (3R)-3-{[2-(3-ethyl-1,2,4-oxadiazol-5-yl)[1,2,4]triazolo[1,5-c]quinazolin-5-yl]amino}azepan-2-one], the IC50 against AHR [1] is 2.15e-08 M; at AHR [2], 26.3 nM.

On to `CC(C)c1noc(-c2nc3c4ccccc4nc(N[C@@H]4CCCCNC4=O)n3n2)n1` [Example 133, (3R)-3-({2-[3-(propan-2-yl)-1,2,4-oxadiazol-5-yl][1,2,4]triazolo[1,5-c]quinazolin-5-yl}amino)azepan-2-one], for which the IC50 against AHR [1] amounted to 1.92e-08 M; on AHR [2], 32.7 nM.

`CC(C)(C)c1noc(-c2nc3c4ccccc4nc(N[C@@H]4CCCCNC4=O)n3n2)n1` [Example 134, (3R)-3-{[2-(3-tert-butyl-1,2,4-oxadiazol-5-yl)[1,2,4]triazolo[1,5-c]quinazolin-5-yl]amino}azepan-2-one]: the results for the IC50 against AHR [1] and at AHR [2] were 8.35e-08 M and 86.8 nM, respectively.

For `O=C1NCCCC[C@H]1Nc1nc2ccccc2c2nc(-c3nc(C4CC4)no3)nn12` [Example 135, (3R)-3-{[2-(3-cyclopropyl-1,2,4-oxadiazol-5-yl)[1,2,4]triazolo[1,5-c]quinazolin-5-yl]amino}azepan-2-one], the half-inhibitory concentration (IC50) on AHR [1] was determined as 2.77e-08 M; on AHR [2], 20.5 nM.

These data come from patent US20230113037A1 (Bayer Aktiengesellschaft, priority 2019, published 2023).
